We go through six substances from publication PMC4240668 (PLoS ONE, 2014).

The test system of data set [1] is differentiated Caco-2 monolayer. The data set can be described thus: Identification of translocated peptides in basal medium of Caco-2 monolayers by MALDI-TOF-MS. The conditions noted are these: Caco-2 monolayer incubated apically with 32 µmol/L PF-488 labeled parent peptide, 37°C.
Protocol: (§1) Cells were pre-incubated with transport medium (Hank's Balanced Salt Solution (HBSS) with Ca^2+, Mg^2+ and glucose) (Invitrogen) (200 µl in the apical, 900 µl in the basal compartment of the transwell system) for 30 min at 37°C. Methyl-β-cyclodextrin (MβCD; Sigma-Aldrich, Munich, Germany; 2 mmol/L) was added to the apical compartment to inhibit endocytosis. Then, PF–488 labeled GP dissolved in 100 µl transport medium were added on the apical side of the cells at a total concentration of 32 µmol/L or 145 µmol/L. Cells were incubated at 37°C for 3 or 24 h. Thereafter, media from both compartments (apical and basal) were removed to be further analyzed by fluorescence spectroscopy and MALDI–TOF–MS; cell inserts were prepared for flow cytometry and confocal laser scanning microscopy.
(§2) For mass spectrometric analyses peptides were concentrated and desalted using C18 ZipTips (Millipore). MALDI–TOF–MS analysis of the apical and basal cell culture media was performed using a Bruker Ultraflex I instrument (Bruker Daltonics, Bremen, Germany) with 2,5-dihydroxybenzoic acid (DHB)/methylenbisphosphonic acid as matrix. For calibration an external standard peptide mixture (Bruker Daltonics) was used. MS-spectra were processed by the software FlexAnalysis (version 3.0, Bruker Daltonics). The peptide sequences of P56–68 and P31–43 as well as fragments of these peptides were deduced from the detected molecular mass considering the H^+, Na^+ and K^+ adducts. Masses were assigned to peptides allegeable to cleavage of GP. Detected GP were quantified by calculating the relative area under the curve (AUC). The values of three independent experiments are given as mean values.
Data set [2] deals with immature dendritic cells (iDC). Kind of data set: Cytokine secretion (IL-8, TNF-α) by immature dendritic cells, sandwich ELISA. Format: cell-based. The conditions noted are these: for Secretion of IL-8 and TNF-α by dendritic cells: iDC from CD14+ PBMCs, 100 µg/mL peptide in RPMI + 2% human serum, 24 h, sandwich ELISA, three experiments (Fig. S1). Here is the method: Supplementary file pone.0113932.s001.tiff: Figure S1 Effect of P31–43 and P56–68 on cytokine secretion (IL-8, TNF-α) by immature dendritic cells (iDC). iDC were generated from CD14+ PBMCs by a 5-day incubation with 500 U/mL IL-4 and 1000 U/mL GM-CSF in RPMI media with 10% human serum. Then, iDC were incubated with 100 µg/mL P31–43 or P56–68 in RPMI+2% human serum for 24 h. IL-8 (A) and TNF-α (B) secretion in the media were analyzed by a commercially available sandwich ELISA (R&D, Wiesbaden, Germany). Each experiment was performed three times; data are given as mean ± SD; only significant differences are shown as *p<0.05, **p<0.01. (TIFF) Click here for additional data file.
Supplementary file pone.0113932.s002.tiff: Figure S2 Effect of the basal media - after incubation of a Caco-2 monolayer with P31–43 and P56–68 - on cytokine secretion (IL-8, TNF-α) by immature dendritic cells (iDC). iDC were generated from CD14+ PBMCs by 5-day incubation with 500 U/mL IL-4 and 1000 U/mL GM-CSF in RPMI media with 10% human serum. iDC were incubated 24 h with basal media of Caco-2 monolayers after they had been exposed to PF-488 labeled P31–43 and P56–68 on the apical side of the cells. IL-8 (A) and TNF-α (B) secretion in the media was analyzed by sandwich ELISA. Each experiment was performed three times; data are given as mean ± SD. (TIFF) Click here for additional data file.

Data set [3] deals with Caco-2 cells (brush border membrane peptidases APN, CPP, DPP IV). Kind of data set: Digestion of gliadin peptides at the apical side of Caco-2 monolayers, MALDI-TOF-MS relative AUC. To be noted: PF-488 labeled peptide at apical side of Caco-2 monolayer, HBSS, 37°C, mean of three independent experiments.
Protocol: as §1, §2
Data set [4] has the same test system.
Protocol: as §1, §2
The nature of data set [5]: basal medium (HBSS transport medium) of Caco-2 monolayer after apical peptide addition. The conditions noted are these: human, 37°C, up to 24 h.
Data set [6] is described as follows: apical medium of differentiated Caco-2 monolayer in transport medium (HBSS with Ca2+, Mg2+ and glucose). To be noted: human, 37°C, up to 24 h. For orientation: Passage across Caco-2 layers is used to estimate intestinal permeability.
Data set [7] is described as follows: apical medium (HBSS transport medium) of differentiated Caco-2 monolayer in transwell. To be noted: human, 37°C, up to 24 h.
A short description of data set [8]: basal medium of differentiated Caco-2 monolayer (peptide added apically) in transport medium (HBSS). The conditions noted are these: human, 37°C; for fragment found: up to 3 h.
Data set [9] in a line: basal medium of differentiated Caco-2 monolayer with MβCD in the apical compartment. To be noted: human, 37°C, up to 24 h.

Entries after “also recorded” stand apart in the source; their conditions may differ. Like-named read-outs stand apart in the source and are kept apart here. No end group written: not given here.

Turning to LGQQQPFPPQQP [P31–42], the “Peptide detected in basal media after 3 h” value in data set [1] (3 h) is reported as “detected”. Further, in data set [1], the “Peptide detected in basal media after 24 h” value is recorded as “detected”.
Consider LGQQQPFPPQQPY [P31–43], for which the “Secretion of IL-8 and TNF-α by dendritic cells” value in [2] is given as “increased secretion”. For the same substance, the “Cytokine production by iDC with basal culture media of peptide-exposed Caco-2 cells” value in data set [2] (iDC incubated 24 h with basal media of Caco-2 monolayers exposed apically to PF-488 labeled peptide, ELISA (Fig. S2)) was “did not significantly increase”. Further, in [3] (3 h, MALDI-TOF-MS after C18 ZipTip, relative AUC), the “Peptide remaining in the apical compartment still intact” value is given as 76%. Further, the “C-terminal tyrosine residue cleaved (presumably by carboxypeptidase P)” value in data set [3] (24 h, MALDI-TOF-MS relative AUC) is reported as 83%.
For LQLQPFPQPQLP [P56–67], the “Peptide detected in basal media after 24 h” value in data set [1] is listed as “found”.
On to LQLQPFPQPQLPY [P56–68], for which the “C-terminal tyrosine residue cleaved (presumably by carboxypeptidase P)” value in [4] came to 72%. In addition, the “Secretion of IL-8 and TNF-α by dendritic cells” value in data set [2] is “no effect”.
For PF-LGQQQPFPPQQPY, the cleaved bond result in [5] is “P-Y, 3 h”; in data set [6], “P-Y, major, 3 h; also recorded: L-G, 3 h; also recorded: G-Q, 3 h; also recorded: P-F, minor, 3 h”. For the same substance, the fragment found entry in data set [7] was “QQPFPPQQP, minor”; in data set [8], “PF-LGQQQPFPPQQP, 3 h; also recorded: PF-LGQQQP, 3 h; also recorded: PF-LGQQ, 3 h; also recorded: PF-LGQ, 3 h”.
In the case of PF-LQLQPFPQPQLPY, the fragment found result in data set [9] is recorded as “PF-LQLQPFPQPQ, 24 h; also recorded: PF-LQLQP, 24 h; also recorded: PF-LQL, 24 h; also recorded: PF-L, 24 h; also recorded: PF-LQLQPFPQPQLP, 24 h”; in data set [7], “QLQPFPQPQLP, minor, 3 h; also recorded: LQPFPQPQLP, minor, 3 h; also recorded: QPFPQPQLP, minor, 3 h”; in data set [8] it was “PF-LQ, 3 h”. Moreover, the cleaved bond result is on record as “P-Y, major, 3 h; also recorded: L-Q, minor, 3 h; also recorded: Q-L, minor, 3 h; also recorded: P-F, minor, 3 h” in [6] and “P-Y, major, 24 h” in [8] (up to 24 h).
